Results reported in patent US5360613A, “Method of reducing blood levels of total cholesterol and low-density lipoprotein cholesterol” (Iowa State University Research Foundation, Inc., priority 1993, dated 1994).

Assays:
[1] = Human dose-response study, blood HMB (Example V); type: in vivo, humans
Description: Higher dose levels than in Example IV of Ca-HMB were tested in humans. The objective was to obtain an indication of whether higher doses could be safely administered, and also whether higher doses might provide a greater reduction in total cholesterol and LDL cholesterol.
Normal humans were used in the study. Ca-HMB was administered in 250 mg capsules, and the subjects were instructed to take the capsules in 4 equal doses daily. No control of diet was attempted except they were instructed to eat as they normally would. On alternate days the subjects had blood drawn before the morning meal and before they took the morning HMB dose. Four subjects were studied for dose level of 05., 1, 2 and 4 grams per day.

blood cholesterol = experiment: Controlled double-blind human study, blood cholesterol (Example IV, Table D); type: in vivo, humans
Description: In view of the findings of the foregoing examples, a human study was carried out.
In a controlled double-blind study, the effects of feeding HMB on loss of urinary nitrogen, blood cholesterol and immune function in normal humans were tested. This study also measured blood components that reflect liver, kidney and tissue metabolism. In addition further measurements of nitrogen metabolism and immune function were implemented. All measurements were made in a controlled dietary situation and under blinded conditions. Normal male subjects were used who had been screened for normalcy. Ca-HMB was administered in 250 mg capsules. The subjects were instructed to take the capsules in 4 equal doses daily (with meals and at bed time). The subject ate all their meals under controlled conditions. Normal diets were used, and the amount of the diets was controlled to maintain equal and substantially constant nitrogen intake. The subjects had blood drawn before the morning meal or before they took the morning HMB dose. Each subject was studied twice: once with a placebo and once with HMB.

plasma cholesterol = experiment: Lamb feeding study, plasma cholesterol (Example II, Table B); type: in vivo, lambs
Description: In view of the encouraging results of Example I, a large mammal study was carried out with lambs. HMB was administered in the form of Ca-HMB.
Cross-bred lambs were obtained from a research flock. Males were selected from a pool of 108 rams while females were selected from a pool of 63 females. Selection was based on weight range, breed and previous performance. Breeding consisted of Dorset, Polypay and Suffold crosses. Males were divided into 5 weight blocks and females into 3 weight blocks. The two heaviest male blocks contained 27 lambs, allotted to 3 pens. All other blocks contained 18 lambs, allotted to 2 pens. Animals were weighed on consecutive days prior to starting the experiment. All animals were shorn 100 days into the experiment. The animals were housed in a single confinement unit with uniform pens. The feeders were concrete bunks with water supplied by several nipple waterers per pen. Dirt flooring was bedded with oat straw when necessary. Weight blocks were placed in adjacent pens with treatment randomly assigned to the blocks. The ration was complete in all nutrients for growing sheep. The diet was formulated to contain protein in excess of the normal requirement in an effort to assure that protein was not a limiting factor for any growth response. The feeding schedule consisted of two feedings per day with the amount controlled so that the animals had eaten all the feed from the previous feeding before being fed again. Also with the feed allotment, a top-dressing of 20 g of either a control premix containing HMB was added at the equivalent of 0.5 gram per animal per day and 1.5 gram per animal per day.
Ca-HMB was prepared by minor modification of the method of Coffman, et al. J. Am. […] Each batch was given a lot number and the purity assessed by high performance liquid chromatography. A single peak was measured when HMB was chromatographed on a C18 column and eluted with 0.01M phosphate buffer, pH 7.0. […]
Blood was collected from each animal. The plasma was analyzed for cholesterol using an Abbott Spectrum Diagnostic system. […] A linear effect of HMB level was evaluated.

[2] = tested on: acetate incorporation into cholesterol by the rat liver; details: 0.5 g/kg body weight for 2 and 4 days; cited from earlier work
[3] = HMB change net of placebo-group change

CC(C)(O)CC(=O)O [HMB, β-hydroxy-β-methylbutyric acid]
Blood HMB ([1]; 0.5 to 4 g per day): increased in a dose-responsive manner
increase in blood HMB ([1]; 4 grams per day): very large increase
increase of HDL cholesterol (blood cholesterol; 2 g of HMB daily for two weeks): 11%
reduction of LDL cholesterol (blood cholesterol; 2 g of HMB daily for two weeks): 10%
reduction of total cholesterol (blood cholesterol; 2 g of HMB daily for two weeks): 6%
% Net Effect HMB, HDL Cholesterol (blood cholesterol; [3]): 11%
% Net Effect HMB, LDL Cholesterol (blood cholesterol; [3]): -10%
% Net Effect HMB, LDL/HDL (blood cholesterol; [3]): -25%
% Net Effect HMB, Total Cholesterol (blood cholesterol; [3]): -6%
% Change Trt. HDL Cholesterol (blood cholesterol; control to HMB treatment): 3%
% Change Trt. LDL Cholesterol (blood cholesterol; control to HMB treatment): -8%
% Change Trt. LDL/HDL (blood cholesterol; control to HMB treatment): -12%
% Change Trt. Total Cholesterol (blood cholesterol; control to HMB treatment): -10%
decrease of ratio of LDL to HDL (blood cholesterol; in two weeks): 25%
LDL cholesterol (blood cholesterol; treated group on HMB, Ca HMB 1.0 grams/24 hours, calculated, pre-treatment control 118): 107
LDL/HDL (blood cholesterol; treated group on HMB, Ca HMB 1.0 grams/24 hours, pre-treatment control 2.38): 2.10
HDL cholesterol (blood cholesterol; treated group on HMB, Ca HMB 1.0 grams/24 hours, pre-treatment control 49.5): 50.9
Total cholesterol (blood cholesterol; treated group on HMB, Ca HMB 1.0 grams/24 hours, pre-treatment control 187): 169
Plasma Cholesterol (plasma cholesterol; 0.5 g HMB daily (Ca-HMB), control 54.3, linear effect 0.05): 51.3
Plasma Cholesterol (plasma cholesterol; 1.5 g HMB daily (Ca-HMB), control 54.3, linear effect 0.05): 48.1
Plasma Cholesterol (plasma cholesterol; oral consumption, lambs): decreased plasma cholesterol
rate of acetate incorporation into cholesterol by the rat liver [2]: not significantly lowered
